Results reported in patent US10696708B2, “Substituted nucleosides, nucleotides and analogs thereof” (Janssen BioPharma, Inc., priority 2013, dated 2020).
pEC50, pIC50: −log10 of the molar value. Read-outs that look alike come from different tables or passages of the source.

How the values were obtained:
[1] = tested on: RSV subgenomic replicon 395 HeLa; assay: RSV subgenomic replicon assay (Renilla luciferase); assay type: cell-based; conditions: human respiratory syncytial virus, 168 h
human PIV type 3 = assay: Parainfluenza Virus-3 (PIV-3) plaque assay; assay type: cell-based
human metapneumovirus = assay: Human Metapneumovirus (hMPV) TCID50 assay; assay type: cell-based
RSV polymerase = RSV polymerase (Human respiratory syncytial virus A, UniProt P28887); assay: Standard RSV polymerase assay; assay type: biochemical
Procedure: Standard RSV polymerase assays were conducted in the presence of 3 μL extract of RSV-infected cells in a reaction buffer containing 50 mM tris-acetate pH 8, 120 mM K-acetate, 4.5 mM MgCl2, 5% glycerol, 2 mM EDTA, 50 ug/mL BSA, and 3 mM DTT. Varying concentration of test compounds were used to initiate RNA synthesis for 120 mins at 30° C., and radioactive 33P GTP (15 uCi) was used as tracer. The reaction was stopped by adding 50 mM EDTA, and RNA samples were purified through G-50 size exclusion spin columns and phenol-chloroform extraction. The radio-labeled RNA products were resolved by electrophoresis on a 6% polyacrylamide TBE gel, and visualized and quantitated after being exposed on a phosphorlmager screen. Polymerase inhibition experiments (IC50) were conducted the same way in the presence of increasing concentration of test compounds.

[2] = RSV replicon 395 HeLa cells, 7 days incubation, compounds listed in Table A1, read-out: EC50
[3] = MA104, MA-104 cells, 72 h infection, viral load by plaque assay, Table B1, read-out: EC50 against PIV-3
[4] = 168 h, LLC-MK2 cells, 7 days infection, viral load by TCID50 assay, Table C1, read-out: EC50 against human metapneumovirus
[5] = RSV replicon 395 HeLa cells, 7 days incubation, compounds listed in Table A2 and other tested compounds, read-out: EC50

Sequence of RSV polymerase (P28887 whole entry, looked up): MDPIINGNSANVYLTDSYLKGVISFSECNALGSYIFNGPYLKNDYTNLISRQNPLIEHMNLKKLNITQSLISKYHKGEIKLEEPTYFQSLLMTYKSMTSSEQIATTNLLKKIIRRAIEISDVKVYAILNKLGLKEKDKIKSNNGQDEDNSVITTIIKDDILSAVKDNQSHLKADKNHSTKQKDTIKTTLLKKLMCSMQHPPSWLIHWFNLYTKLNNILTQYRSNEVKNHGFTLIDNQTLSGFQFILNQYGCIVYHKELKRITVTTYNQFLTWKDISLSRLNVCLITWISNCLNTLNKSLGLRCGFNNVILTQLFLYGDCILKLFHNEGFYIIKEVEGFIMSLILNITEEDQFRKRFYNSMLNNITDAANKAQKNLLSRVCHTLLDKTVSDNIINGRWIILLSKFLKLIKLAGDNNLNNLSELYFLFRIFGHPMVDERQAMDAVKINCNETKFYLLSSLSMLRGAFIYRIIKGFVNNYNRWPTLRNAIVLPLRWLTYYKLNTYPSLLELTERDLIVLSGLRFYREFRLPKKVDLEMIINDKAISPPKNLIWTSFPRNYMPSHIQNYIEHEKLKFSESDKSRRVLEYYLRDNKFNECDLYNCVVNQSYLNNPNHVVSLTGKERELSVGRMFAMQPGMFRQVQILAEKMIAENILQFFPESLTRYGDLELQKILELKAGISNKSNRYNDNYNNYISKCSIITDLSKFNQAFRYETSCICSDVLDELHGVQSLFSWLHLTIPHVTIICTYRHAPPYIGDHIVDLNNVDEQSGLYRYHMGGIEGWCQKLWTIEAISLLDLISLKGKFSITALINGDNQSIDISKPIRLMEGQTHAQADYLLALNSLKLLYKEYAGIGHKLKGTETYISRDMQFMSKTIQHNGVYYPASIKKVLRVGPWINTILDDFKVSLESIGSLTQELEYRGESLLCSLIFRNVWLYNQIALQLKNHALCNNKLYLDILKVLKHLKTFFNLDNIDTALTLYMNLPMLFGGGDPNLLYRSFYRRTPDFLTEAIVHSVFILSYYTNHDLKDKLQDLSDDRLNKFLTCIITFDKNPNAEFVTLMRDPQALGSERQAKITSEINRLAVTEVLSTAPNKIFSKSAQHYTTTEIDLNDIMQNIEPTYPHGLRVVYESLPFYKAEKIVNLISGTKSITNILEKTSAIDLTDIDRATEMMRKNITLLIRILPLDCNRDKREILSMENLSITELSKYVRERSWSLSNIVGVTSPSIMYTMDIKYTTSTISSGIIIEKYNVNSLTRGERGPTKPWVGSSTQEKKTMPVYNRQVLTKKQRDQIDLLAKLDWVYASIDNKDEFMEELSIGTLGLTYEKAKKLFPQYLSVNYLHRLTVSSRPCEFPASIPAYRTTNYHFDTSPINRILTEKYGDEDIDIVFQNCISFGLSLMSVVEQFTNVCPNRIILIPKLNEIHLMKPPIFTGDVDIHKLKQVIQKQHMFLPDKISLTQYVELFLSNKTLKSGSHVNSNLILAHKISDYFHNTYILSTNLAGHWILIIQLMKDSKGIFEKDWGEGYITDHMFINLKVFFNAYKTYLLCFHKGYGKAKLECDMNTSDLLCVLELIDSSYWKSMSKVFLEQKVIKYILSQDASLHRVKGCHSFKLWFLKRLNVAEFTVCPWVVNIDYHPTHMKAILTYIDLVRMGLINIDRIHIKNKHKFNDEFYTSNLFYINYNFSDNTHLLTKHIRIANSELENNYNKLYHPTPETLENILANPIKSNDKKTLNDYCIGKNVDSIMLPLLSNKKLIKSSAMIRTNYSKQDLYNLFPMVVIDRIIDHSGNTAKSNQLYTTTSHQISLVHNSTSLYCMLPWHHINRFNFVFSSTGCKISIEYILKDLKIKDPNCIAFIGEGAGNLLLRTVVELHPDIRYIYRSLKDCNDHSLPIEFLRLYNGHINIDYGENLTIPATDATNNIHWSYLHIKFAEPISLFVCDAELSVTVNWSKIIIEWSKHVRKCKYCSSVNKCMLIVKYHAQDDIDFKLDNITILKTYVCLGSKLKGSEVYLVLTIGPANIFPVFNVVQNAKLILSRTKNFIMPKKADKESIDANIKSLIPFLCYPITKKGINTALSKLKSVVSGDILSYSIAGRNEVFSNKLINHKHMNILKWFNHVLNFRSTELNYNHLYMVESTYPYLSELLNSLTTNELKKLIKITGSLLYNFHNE

| SMILES | pEC50 (human PIV type 3; [3]) | pEC50 (human metapneumovirus; [4]) | pIC50 (RSV polymerase) | pEC50 [1, 5] | other results |
| --- | --- | --- | --- | --- | --- |
| CCCCC(=O)OC[C@@]1(CN=[N+]=[N-])O[C@@H](n2ccc(N)nc2=O)[C@H](F)[C@@H]1OC(=O)CCCC [Compound 16A] | > 4.70 | > 4.70 | – | – | pEC50 [1, 2]: > 6.00 |
| [N-]=[N+]=NC[C@]1(CO)O[C@@H](n2ccc(N)nc2=O)[C@H](F)[C@@H]1O [Compound 2A] | > 4.70 | > 4.70 | – | – | pEC50 [1, 2]: > 6.00 |
| NC[C@]1(COP(=O)(O)OP(=O)(O)OP(=O)(O)O)O[C@@H](n2ccc(=O)[nH]c2=O)[C@H](F)[C@@H]1O [Compound 5A] | – | – | 4.30 to 6.00 | – | – |
| [N-]=[N+]=NC[C@]1(COP(=O)(O)OP(=O)(O)OP(=O)(O)O)O[C@@H](n2cnc3c(N)ncnc32)[C@H](F)[C@@H]1O [Compound 11A] | – | – | > 6.00 | – | – |
| CC(C)OC(=O)OCOP(=O)(OCOC(=O)OC(C)C)OC[C@@]1(CN=[N+]=[N-])O[C@@H](n2ccc(=O)[nH]c2=O)[C@H](F)[C@@H]1O [Compound 17A] | > 4.70 | > 4.70 | – | 4.30 to 6.00 | – |
| [N-]=[N+]=NC[C@]1(CO)O[C@@H](n2cnc3c(=O)[nH]c(N)nc32)[C@H](F)[C@@H]1O [Compound 7A] | – | > 4.70 | – | 4.30 to 6.00 | – |
| CC(C)C(=O)OC[C@@]1(CN=[N+]=[N-])O[C@@H](n2ccc(N)nc2=O)[C@H](F)[C@@H]1OC(=O)C(C)C [Compound 14A] | > 4.70 | > 4.70 | – | – | pEC50 [1, 2]: > 6.00 |
| CC(C)OC(=O)[C@H](C)NP(=O)(N[C@@H](C)C(=O)OC(C)C)OC[C@@]1(CN=[N+]=[N-])O[C@@H](n2ccc(=O)[nH]c2=O)[C@H](F)[C@@H]1O [Compound 20A] | – | – | – | 4.30 to 6.00 | – |
| NC[C@]1(COP(=O)(O)OP(=O)(O)OP(=O)(O)O)O[C@@H](n2ccc(N)nc2=O)[C@H](F)[C@@H]1O [Compound 6A] | – | – | 4.30 to 6.00 | – | – |
| CC(C)OC(=O)CCc1ccccc1OP(=O)(N[C@@H](C)C(=O)OC(C)C)OC[C@@]1(CN=[N+]=[N-])O[C@@H](n2ccc(=O)[nH]c2=O)[C@H](F)[C@@H]1O (stereo partly drawn) [Compound 23A] | – | – | – | – | pEC50 ([1]; HeLa): 4.30 to 6.00 |
| CC(C)(C)C(=O)OCOP(=O)(OCOC(=O)C(C)(C)C)OC[C@@]1(CN=[N+]=[N-])O[C@@H](n2ccc(=O)[nH]c2=O)[C@H](F)[C@@H]1O [Compound 28A] | > 4.70 | > 4.70 | – | 4.30 to 6.00 | – |
| [N-]=[N+]=NC[C@]1(COP(=O)(O)OP(=O)(O)OP(=O)(O)O)O[C@@H](n2ccc(N)nc2=O)[C@H](F)[C@@H]1O [Compound 4A] | – | – | > 6.00 | – | – |
| CC(C)OC(=O)C(C)NP(=O)(OCCSC(=O)C(C)(C)CO)OC[C@@]1(CN=[N+]=[N-])O[C@@H](n2ccc(=O)[nH]c2=O)[C@H](F)[C@@H]1O (stereo partly drawn) [Compound 22A] | – | – | – | 4.30 to 6.00 | – |
| NC[C@]1(COP(=O)(O)OP(=O)(O)OP(=O)(O)O)O[C@@H](n2cnc3c(N)ncnc32)[C@H](F)[C@@H]1O [Compound 12A] | – | – | > 6.00 | – | – |
| CCC(=O)OC[C@@]1(CN=[N+]=[N-])O[C@@H](n2ccc(N)nc2=O)[C@H](F)[C@@H]1OC(=O)CC [Compound 15A] | > 4.70 | > 4.70 | – | – | pEC50 [1, 2]: > 6.00 |
| [N-]=[N+]=NC[C@]1(COP(=O)(O)OP(=O)(O)OP(=O)(O)O)O[C@@H](n2ccc(=O)[nH]c2=O)[C@H](F)[C@@H]1O [Compound 3A] | – | – | > 6.00 | – | – |
| CC(C)(CO)C(=O)SCCOP(=O)(OCCSC(=O)C(C)(C)CO)OC[C@@]1(CN=[N+]=[N-])O[C@@H](n2ccc(=O)[nH]c2=O)[C@H](F)[C@@H]1O [Compound 21A] | – | – | – | – | pEC50 ([1]; HeLa): 4.30 to 6.00 |
| CC(C)OC(=O)[C@H](C)NP(=O)(OC[C@@]1(CN=[N+]=[N-])O[C@@H](n2ccc(=O)[nH]c2=O)[C@H](F)[C@@H]1O)Oc1ccccc1 (stereo partly drawn) [Compound 18A] | – | – | – | – | pEC50 ([1]; HeLa): 4.30 to 6.00; pEC50 (human PIV type 3; MA104, 72 h, read-out: EC50 against PIV-3): > 4.70; pEC50 (human metapneumovirus; LLC-MK2, 168 h, read-out: EC50 against human metapneumovirus): > 4.70 |
| CC(C)(C)C(=O)SCCOP(=O)(OCCSC(=O)C(C)(C)C)OC[C@@]1(CN=[N+]=[N-])O[C@@H](n2ccc(=O)[nH]c2=O)[C@H](F)[C@@H]1O [Compound 19A] | > 4.70 | > 4.70 | – | 4.30 to 6.00 | – |
